From ChEMBL document CHEMBL1201862, “PubChem BioAssay data set” (2004) come the findings set out here.

The source made the active and inactive calls.

What is called CC50 is the concentration that lowers cell viability or growth by half. What is called IC50 is the concentration at which inhibition is half-maximal. By AC50 is commonly meant the concentration giving half of the maximal activity seen. As usually defined, the EC50 is the concentration that produces a half-maximal response.

Assay [1] has as its system Vero. Briefly: cytotoxicity of synthesized analogs in Vero 76, SAR follow-up, cytotoxicity control for West Nile virus antiviral project, Vero 76 cells (AID 2414). The settings on record: Chlorocebus sabaeus. In kind it is functional.
For assay [2], the system named is Vero. Kind of assay: cytotoxicity of synthesized analogs in Vero cells, SAR follow-up, cytotoxicity control for West Nile virus antiviral project, cell-based, set II (AID 2402). The assay is classed as functional. The settings on record: Chlorocebus sabaeus.
Assay [3] concerns Vero. Briefly: Vero E6 cell cytotoxicity, SAR follow-up, cytotoxicity control for West Nile virus antiviral project, synthesized analogs (AID 2244). In kind it is functional. The settings on record: Chlorocebus sabaeus.
A short description of assay [4]: A Cell Based Assay for the Identification of Probe candidate Compounds with Anti- Venezuelan Equine Encephalitis virus. [Related pubchem assays: 2409, 2419, 1621, 2238, 2405, 2024, 2065, 2402, 2414, 1635, 1650, 2244 ]. The assay is classed as functional.
Assay [5] concerns Vero. Kind of assay: West Nile virus CPE inhibition, SAR follow-up, cell-based, synthesized analogs (AID 2238). The assay is classed as functional. To be noted: Chlorocebus sabaeus.
Assay [6] has as its system Vero. Kind of assay: West Nile virus cytopathic effect inhibition, cell-based (AID 2419). To be noted: Chlorocebus sabaeus. The assay is classed as functional. On the technique in general: Protection from cytopathic effect is a common read-out in antiviral testing.
Assay [7] deals with Vero. Briefly: West Nile virus antiviral activity, cell-based, CPE readout (AID 1621). In kind it is functional. The settings on record: Chlorocebus sabaeus.
Assay [8] can be described thus: THP-1 cell cytotoxicity, dose response, cytotoxicity control for non-replicating M. tuberculosis project (AID 489025). The assay is classed as functional.
A short description of assay [9]: HepG2 cell cytotoxicity, dose response, cytotoxicity control for non-replicating M. tuberculosis project (AID 489018). The settings on record: Mycobacterium tuberculosis. In kind it is functional.
The target of assay [10] is T1, Ubiquitin-conjugating enzyme E2 N (Homo sapiens, UniProt P61088).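 Further: Dose-response confirmation in a TR-FRET assay detecting UBC13-driven polyubiquitin chain formation, inhibition measured.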
T1 sequence (P61088 whole entry): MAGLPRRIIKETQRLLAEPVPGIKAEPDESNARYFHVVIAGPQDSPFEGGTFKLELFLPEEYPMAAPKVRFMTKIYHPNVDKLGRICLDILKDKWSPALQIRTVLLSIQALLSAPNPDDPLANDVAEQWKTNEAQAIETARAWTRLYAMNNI
In kind it is functional.

The nature of assay [11]: Vero E6 cell cytotoxicity, dose response, cytotoxicity control for non-replicating M. tuberculosis project, secondary assay (AID 492998). In kind it is functional, VeroE6. To be noted: Vero C1008.
The target in the next assay is Nonstructural protein 1 (Influenza A virus, UniProt Q194T2). The assay is classed as functional, Influenza A virus (A/California/07/2009(H1N1)).
Another assay in a line: cells. The assay is classed as functional.
The target in assay [12] is T2, Replicative DNA helicase DnaB (Mycobacterium tuberculosis, UniProt P9WMR3).
T2 sequence (P9WMR3 whole entry): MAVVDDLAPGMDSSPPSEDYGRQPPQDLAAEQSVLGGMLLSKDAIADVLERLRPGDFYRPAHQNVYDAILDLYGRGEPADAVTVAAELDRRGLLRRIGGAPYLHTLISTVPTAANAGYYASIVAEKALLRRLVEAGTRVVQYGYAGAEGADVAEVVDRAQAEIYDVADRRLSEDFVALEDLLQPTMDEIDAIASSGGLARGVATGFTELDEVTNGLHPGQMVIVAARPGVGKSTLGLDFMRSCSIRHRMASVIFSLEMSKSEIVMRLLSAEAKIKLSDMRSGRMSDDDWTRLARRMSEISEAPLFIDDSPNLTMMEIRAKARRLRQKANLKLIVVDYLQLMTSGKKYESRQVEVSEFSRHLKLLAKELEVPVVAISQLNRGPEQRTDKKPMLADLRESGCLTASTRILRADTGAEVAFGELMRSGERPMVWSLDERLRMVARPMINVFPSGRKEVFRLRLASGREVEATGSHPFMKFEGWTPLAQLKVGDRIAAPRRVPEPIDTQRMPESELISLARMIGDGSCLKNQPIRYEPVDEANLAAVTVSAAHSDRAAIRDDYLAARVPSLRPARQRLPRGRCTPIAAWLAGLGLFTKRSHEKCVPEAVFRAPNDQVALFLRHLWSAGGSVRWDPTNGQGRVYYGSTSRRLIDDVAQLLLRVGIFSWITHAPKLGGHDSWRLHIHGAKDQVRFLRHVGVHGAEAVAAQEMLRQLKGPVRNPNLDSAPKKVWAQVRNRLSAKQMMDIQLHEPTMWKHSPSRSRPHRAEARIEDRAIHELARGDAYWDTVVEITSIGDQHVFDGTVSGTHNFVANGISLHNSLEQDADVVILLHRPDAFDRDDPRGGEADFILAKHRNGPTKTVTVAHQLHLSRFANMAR
Kind of assay: DnaB intein splicing inhibitors, dose response, biochemical, cell-free fluorescence (AID 449749). In kind it is functional.

In assay [13] the target is T3, Apoptotic protease-activating factor 1 (Homo sapiens, UniProt O14727).
T3 sequence (O14727 whole entry): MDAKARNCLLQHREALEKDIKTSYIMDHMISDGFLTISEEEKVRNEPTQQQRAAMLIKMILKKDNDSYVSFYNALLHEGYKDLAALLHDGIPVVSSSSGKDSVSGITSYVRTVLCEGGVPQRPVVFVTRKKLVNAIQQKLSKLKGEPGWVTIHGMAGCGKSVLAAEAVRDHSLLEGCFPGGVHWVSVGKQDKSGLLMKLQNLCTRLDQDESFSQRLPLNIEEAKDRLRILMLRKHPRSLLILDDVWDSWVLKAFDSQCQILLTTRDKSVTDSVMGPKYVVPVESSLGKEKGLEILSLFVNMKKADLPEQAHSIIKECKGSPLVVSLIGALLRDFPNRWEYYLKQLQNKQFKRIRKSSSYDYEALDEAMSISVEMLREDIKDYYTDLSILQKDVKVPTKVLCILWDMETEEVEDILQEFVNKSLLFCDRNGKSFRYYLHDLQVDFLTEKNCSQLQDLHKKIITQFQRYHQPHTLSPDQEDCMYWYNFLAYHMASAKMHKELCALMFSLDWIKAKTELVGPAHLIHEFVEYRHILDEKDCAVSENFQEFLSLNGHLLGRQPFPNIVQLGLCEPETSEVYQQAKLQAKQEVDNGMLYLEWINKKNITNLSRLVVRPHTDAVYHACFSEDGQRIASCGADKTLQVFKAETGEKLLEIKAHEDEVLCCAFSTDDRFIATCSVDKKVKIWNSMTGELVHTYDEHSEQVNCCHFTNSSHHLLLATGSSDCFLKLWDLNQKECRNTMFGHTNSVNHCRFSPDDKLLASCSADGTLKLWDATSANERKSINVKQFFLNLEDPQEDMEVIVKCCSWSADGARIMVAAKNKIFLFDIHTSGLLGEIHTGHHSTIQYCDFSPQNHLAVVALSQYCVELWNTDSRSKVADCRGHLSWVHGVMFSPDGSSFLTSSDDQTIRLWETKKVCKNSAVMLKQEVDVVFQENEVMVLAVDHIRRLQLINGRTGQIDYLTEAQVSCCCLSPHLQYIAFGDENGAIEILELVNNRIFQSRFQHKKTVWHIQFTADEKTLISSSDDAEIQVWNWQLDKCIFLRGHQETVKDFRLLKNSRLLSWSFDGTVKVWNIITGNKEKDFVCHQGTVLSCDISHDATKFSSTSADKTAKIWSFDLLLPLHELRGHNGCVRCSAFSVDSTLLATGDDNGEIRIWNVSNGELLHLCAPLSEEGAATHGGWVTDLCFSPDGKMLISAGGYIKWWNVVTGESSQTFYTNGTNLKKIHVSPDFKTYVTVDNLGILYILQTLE
The assay is classed as functional.

For the next assay, the target named is T4, Protein RecA (Mycobacterium tuberculosis, UniProt P9WHJ3).
T4 sequence (P9WHJ3 whole entry): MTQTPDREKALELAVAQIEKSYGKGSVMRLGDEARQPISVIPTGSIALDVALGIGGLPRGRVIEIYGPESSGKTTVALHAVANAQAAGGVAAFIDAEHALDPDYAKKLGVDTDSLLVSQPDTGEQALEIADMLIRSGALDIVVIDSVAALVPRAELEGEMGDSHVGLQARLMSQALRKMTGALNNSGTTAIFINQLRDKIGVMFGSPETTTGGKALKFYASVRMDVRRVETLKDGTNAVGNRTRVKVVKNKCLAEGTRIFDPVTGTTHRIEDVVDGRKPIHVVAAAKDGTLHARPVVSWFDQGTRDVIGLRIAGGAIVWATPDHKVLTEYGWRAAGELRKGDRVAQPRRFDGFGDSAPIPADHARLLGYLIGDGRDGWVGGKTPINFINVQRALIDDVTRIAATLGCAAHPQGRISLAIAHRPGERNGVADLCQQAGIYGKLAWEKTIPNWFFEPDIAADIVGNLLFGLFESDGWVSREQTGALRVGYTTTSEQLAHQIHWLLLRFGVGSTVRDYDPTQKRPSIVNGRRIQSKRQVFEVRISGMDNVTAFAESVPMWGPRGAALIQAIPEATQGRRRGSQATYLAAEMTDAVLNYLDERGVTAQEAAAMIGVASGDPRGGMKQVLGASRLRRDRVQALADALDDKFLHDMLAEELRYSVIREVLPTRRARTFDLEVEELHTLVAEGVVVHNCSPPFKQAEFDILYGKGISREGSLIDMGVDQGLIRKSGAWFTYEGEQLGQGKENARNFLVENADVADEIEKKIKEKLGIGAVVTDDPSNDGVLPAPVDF
Briefly: Fluorescence Cell-Free Homogeneous Dose Retest to Identify Inhibitors of RecA-Intein Splicing Activity. [Related pubchem assays (depositor defined):AID2097, AID2223, AID489010, AID492950]. In kind it is functional.

In assay [14] the test system is Streptococcus sp. 'group A'. Kind of assay: growth inhibition of control SK(-) GAS strain, dose response, counter-screen for streptokinase expression inhibitor project, luminescence, kanamycin, BacTiterGlo, confirmation (AID 1900). The assay is classed as functional, organism-based. Background: Counterscreens check selectivity or assay interference.
Assay [15] has as its target T5, SUMO-activating enzyme (Homo sapiens, UniProt Q9UBT2). Kind of assay: SUMOylation inhibitor hit validation, confirmation, SUMOylation inhibitor project, biochemical, AlphaScreen (AID 2018). In kind it is functional.
Assay [16] concerns the target T5, SUMO-activating enzyme. Kind of assay: inhibitors of in vitro SUMOylation cascade, primary screen, biochemical, HTRF, uHTS (AID 2006). In kind it is protein-complex assay.
For the next assay, the system named is Streptococcus. Kind of assay: Group A Streptococcus viability loss, dose response, counter-screen for streptokinase expression inhibitor project, luminescence, BacTiterGlo (AID 1915).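 Further: potency for reduction of bacterial viability or growth.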 In kind it is functional, organism-based.
In assay [17] the target is Voltage-dependent T-type calcium channel subunit alpha-1H (Homo sapiens, UniProt O95180). Kind of assay: Cav3.2 T-type channel inhibitors, cell-based, synthetic library set 1, calcium flux (AID 493022). The assay is classed as functional.
The target in the next assay is Mu-type opioid receptor (Homo sapiens, UniProt P35372). Briefly: SAR Analysis of Antagonists of the MOR Receptor using an Image-Based Assay - Set 3. [Related pubchem assays (depositor defined):AID1777, AID1785, AID1786, AID1966, AID2133, AID2136, AID2284, AID2285, AID2420]. In kind it is functional.
The target in assay [18] is T6, Kappa-type opioid receptor (Homo sapiens, UniProt P41145). Briefly: SAR analysis of small molecule antagonists of the kappa opioid receptor via a luminescent beta-arrestin assay - Set 6. [Related pubchem assays (depositor defined):AID1777, AID1778, AID1785, AID1786, AID1966, AID2133, AID2136, AID2285]. The assay is classed as functional.
Assay [19] has as its target T6, Kappa-type opioid receptor. Briefly: SAR analysis of small molecule antagonists of the kappa opioid receptor via a luminescent beta-arrestin assay - Set 4. [Related pubchem assays (depositor defined):AID1777, AID1778, AID1785, AID1786, AID1966, AID2133, AID2136, AID2285]. In kind it is functional.
Assay [20] concerns the target Delta-type opioid receptor (Homo sapiens, UniProt P41143). Briefly: SAR Analysis of Antagonists of the DOR Receptor using an Image-Based Assay - Set 3. [Related pubchem assays (depositor defined):AID1777, AID1785]. The assay is classed as functional.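 Further: U2OS cells expressing DOR1 and beta-arrestin GFP stimulated with 100 nM SNC80; imaging of GFP-tagged beta-arrestin moving into spots after receptor activation.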
Assay [21] addresses T6, Kappa-type opioid receptor. Kind of assay: SAR analysis of Antagonists of the Kappa Opioid Receptor (KOR) using an Image-Based Assay - Set 4. [Related pubchem assays (depositor defined):AID1777, AID1785]. In kind it is functional.

T6 sequence (P41145 whole entry): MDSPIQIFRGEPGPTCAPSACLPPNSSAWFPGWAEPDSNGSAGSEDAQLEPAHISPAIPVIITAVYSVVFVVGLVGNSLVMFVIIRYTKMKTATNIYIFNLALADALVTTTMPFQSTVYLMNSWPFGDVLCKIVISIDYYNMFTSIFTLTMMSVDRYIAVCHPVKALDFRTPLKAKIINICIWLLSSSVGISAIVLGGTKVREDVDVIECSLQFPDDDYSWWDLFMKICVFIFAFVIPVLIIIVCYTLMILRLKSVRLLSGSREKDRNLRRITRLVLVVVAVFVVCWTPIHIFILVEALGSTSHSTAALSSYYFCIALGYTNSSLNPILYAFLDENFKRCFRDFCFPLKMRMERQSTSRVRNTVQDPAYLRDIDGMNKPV
T5 sequence (Q9UBE0 whole entry): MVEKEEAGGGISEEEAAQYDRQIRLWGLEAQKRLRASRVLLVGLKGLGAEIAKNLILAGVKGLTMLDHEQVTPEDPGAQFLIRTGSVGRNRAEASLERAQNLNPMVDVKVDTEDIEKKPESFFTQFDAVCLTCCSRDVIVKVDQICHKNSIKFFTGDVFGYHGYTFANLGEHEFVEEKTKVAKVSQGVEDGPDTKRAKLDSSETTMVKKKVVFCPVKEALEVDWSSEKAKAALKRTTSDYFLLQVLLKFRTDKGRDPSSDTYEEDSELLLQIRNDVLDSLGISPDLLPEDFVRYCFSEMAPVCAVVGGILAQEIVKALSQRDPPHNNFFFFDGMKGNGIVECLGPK
T5 sequence (Q9UBT2 whole entry): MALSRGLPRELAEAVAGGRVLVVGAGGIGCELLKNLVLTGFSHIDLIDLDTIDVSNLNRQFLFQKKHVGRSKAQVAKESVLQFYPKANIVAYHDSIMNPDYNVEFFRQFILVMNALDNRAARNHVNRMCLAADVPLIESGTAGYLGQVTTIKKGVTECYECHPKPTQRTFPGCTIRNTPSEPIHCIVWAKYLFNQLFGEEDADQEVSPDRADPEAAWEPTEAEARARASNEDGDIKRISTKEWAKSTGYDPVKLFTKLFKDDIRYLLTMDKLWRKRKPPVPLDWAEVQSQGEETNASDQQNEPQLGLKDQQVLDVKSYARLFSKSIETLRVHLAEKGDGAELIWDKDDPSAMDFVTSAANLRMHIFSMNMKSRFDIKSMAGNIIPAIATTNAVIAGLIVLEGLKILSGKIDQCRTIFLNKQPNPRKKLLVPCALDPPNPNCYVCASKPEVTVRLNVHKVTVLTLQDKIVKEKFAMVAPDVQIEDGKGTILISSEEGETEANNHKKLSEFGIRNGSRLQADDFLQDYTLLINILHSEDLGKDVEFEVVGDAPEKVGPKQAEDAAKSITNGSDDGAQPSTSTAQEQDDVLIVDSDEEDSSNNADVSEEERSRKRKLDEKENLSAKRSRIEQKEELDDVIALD
Nonstructural protein 1, sequence (Q194T2 whole entry): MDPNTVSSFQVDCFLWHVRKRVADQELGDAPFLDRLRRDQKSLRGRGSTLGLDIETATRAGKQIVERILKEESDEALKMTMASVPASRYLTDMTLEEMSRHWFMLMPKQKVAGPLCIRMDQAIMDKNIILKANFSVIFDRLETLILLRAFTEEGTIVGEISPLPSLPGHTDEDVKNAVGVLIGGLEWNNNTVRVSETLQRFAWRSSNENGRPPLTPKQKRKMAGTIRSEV
Delta-type opioid receptor, sequence (P41143 whole entry): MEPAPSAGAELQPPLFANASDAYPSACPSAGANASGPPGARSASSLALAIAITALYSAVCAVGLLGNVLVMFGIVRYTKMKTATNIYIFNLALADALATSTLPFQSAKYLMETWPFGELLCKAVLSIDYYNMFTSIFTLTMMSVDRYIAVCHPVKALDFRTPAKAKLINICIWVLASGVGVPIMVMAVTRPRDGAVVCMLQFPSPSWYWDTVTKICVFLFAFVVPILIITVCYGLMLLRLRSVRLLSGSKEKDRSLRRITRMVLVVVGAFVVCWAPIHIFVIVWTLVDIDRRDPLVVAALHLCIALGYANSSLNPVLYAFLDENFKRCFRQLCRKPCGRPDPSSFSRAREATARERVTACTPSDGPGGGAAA
Mu-type opioid receptor, sequence (P35372 whole entry): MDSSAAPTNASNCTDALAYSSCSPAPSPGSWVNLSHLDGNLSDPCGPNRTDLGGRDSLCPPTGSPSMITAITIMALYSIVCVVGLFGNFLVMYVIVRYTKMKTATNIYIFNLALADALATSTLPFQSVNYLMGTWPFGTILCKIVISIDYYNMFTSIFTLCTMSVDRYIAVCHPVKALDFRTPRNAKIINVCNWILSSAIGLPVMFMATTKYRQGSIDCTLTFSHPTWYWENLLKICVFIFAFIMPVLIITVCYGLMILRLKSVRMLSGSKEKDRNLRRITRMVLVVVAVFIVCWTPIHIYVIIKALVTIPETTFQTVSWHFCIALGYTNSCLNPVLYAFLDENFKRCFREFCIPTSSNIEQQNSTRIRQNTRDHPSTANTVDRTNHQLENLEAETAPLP
Voltage-dependent T-type calcium channel subunit alpha-1H, sequence (O95180 whole entry): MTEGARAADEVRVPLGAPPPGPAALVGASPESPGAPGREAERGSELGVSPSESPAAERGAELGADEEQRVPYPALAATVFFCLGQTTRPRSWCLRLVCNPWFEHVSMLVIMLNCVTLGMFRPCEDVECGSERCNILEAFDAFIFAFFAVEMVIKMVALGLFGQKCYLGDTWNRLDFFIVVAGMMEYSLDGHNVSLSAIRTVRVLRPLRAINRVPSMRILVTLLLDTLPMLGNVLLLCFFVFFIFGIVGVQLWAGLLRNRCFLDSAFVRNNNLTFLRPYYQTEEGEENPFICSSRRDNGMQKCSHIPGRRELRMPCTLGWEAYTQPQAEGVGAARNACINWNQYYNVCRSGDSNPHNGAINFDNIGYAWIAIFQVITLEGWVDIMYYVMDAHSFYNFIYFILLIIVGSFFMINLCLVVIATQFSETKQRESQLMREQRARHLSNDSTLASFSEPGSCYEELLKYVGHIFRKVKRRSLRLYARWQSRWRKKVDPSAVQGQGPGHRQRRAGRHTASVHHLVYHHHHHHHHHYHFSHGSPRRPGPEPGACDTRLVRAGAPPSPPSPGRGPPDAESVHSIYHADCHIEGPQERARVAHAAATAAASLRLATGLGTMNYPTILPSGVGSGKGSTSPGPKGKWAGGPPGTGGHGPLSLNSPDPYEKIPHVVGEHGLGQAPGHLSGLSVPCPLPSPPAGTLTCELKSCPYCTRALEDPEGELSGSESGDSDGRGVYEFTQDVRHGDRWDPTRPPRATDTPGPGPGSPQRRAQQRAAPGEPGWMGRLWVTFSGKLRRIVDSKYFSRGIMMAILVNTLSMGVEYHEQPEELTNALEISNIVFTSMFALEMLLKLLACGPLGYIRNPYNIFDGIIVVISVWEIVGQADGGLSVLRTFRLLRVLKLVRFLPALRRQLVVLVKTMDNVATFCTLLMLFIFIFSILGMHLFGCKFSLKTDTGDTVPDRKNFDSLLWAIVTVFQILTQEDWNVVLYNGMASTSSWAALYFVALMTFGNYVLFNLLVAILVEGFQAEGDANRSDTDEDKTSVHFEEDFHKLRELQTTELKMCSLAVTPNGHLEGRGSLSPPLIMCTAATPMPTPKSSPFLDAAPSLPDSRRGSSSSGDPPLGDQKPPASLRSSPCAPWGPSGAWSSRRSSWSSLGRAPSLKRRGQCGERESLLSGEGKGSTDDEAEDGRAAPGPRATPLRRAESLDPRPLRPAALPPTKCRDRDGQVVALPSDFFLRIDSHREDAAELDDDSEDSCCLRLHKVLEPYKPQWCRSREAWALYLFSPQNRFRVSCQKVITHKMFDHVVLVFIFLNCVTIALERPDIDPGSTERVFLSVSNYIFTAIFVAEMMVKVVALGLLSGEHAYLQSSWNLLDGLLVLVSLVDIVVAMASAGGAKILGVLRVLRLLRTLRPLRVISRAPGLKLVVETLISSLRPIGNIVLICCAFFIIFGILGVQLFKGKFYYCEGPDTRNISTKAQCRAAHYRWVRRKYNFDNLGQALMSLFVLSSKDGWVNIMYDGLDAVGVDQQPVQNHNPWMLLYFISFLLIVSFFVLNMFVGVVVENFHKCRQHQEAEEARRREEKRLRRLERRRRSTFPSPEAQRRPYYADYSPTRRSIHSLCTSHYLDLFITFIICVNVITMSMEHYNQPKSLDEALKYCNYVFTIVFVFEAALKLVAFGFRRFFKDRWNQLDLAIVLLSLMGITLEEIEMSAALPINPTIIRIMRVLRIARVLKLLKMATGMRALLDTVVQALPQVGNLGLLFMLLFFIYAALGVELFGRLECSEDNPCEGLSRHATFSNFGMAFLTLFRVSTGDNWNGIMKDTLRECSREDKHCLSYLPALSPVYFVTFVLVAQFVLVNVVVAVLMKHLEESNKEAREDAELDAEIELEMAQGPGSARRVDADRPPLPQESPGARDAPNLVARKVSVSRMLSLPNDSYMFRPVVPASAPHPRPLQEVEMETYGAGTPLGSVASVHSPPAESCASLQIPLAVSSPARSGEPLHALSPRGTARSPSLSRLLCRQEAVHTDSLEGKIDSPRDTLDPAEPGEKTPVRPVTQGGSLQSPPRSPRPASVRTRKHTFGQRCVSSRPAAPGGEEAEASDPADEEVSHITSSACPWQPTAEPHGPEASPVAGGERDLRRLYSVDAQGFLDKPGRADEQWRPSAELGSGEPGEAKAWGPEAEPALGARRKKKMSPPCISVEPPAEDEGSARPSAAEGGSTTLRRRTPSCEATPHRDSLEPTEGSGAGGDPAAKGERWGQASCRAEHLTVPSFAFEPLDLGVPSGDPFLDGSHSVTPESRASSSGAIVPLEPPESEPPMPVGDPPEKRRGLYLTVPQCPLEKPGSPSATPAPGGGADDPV

On to `CCOC(=O)C1(Cc2ccccc2C(F)(F)F)CCN(C2CCN(C(C)C)CC2)CC1`, for which the CC50 was > 133 µM (active) in the assay on Vero [1], 31.5 µM (active) with Vero [2] and 21.6 µM (active) in the assay with Vero [3]. The IC50 in assay [4] is 6.36 µM (active); with Vero [5] it was 36.5 µM (active); in the assay with Vero [6] it was > 50 µM (active); in the assay with Vero [7] it was 18.6 µM (active).

On to `CCOC(=O)C1=C(c2ccccc2)N=C(N)NC1c1ccc(OCc2ccc(C(=O)OC)cc2)cc1` (stereo unspecified), for which the CC50 is 11.8 µM (active) in [8], > 20 µM (active) in assay [9] and 18.2 µM (active) in [11]. Besides, the IC50 is > 20 µM (inactive) in assay [10], 62.3 µM (active) on Nonstructural protein 1, 9.88 µM (active) in “cells” and 26.8 µM (active) in assay [13]. Further, the AC50 in assay [12] is 15.6 µM (active). The EC50 on Protein RecA was 11.8 µM (active).

Consider `O=C(COc1ccc(Cl)cc1)Nc1nnc(-c2ccc3c(c2)CCCC3)o1`, for which the EC50 in assay [14] was 0.489 µM (active); in the assay on Streptococcus, 1.83 µM (active); in assay [17], 2.8 µM (active). Also, the IC50 at SUMO-activating enzyme [15] is > 100 µM (inactive); on SUMO-activating enzyme [16], 48.2 µM (active).

In the case of `Cc1ccc(S(=O)(=O)NCc2ccc(C(=O)NCCN3CCN(c4ccccc4)CC3)cc2)cc1`, the IC50 at Mu-type opioid receptor was > 32 µM (inactive); in assay [18], > 20 µM (inactive); in [19], > 20 µM (inactive); in assay [20] it was > 32 µM (inactive); in assay [21], > 32 µM (inactive).
